Assay results from patent publication US20180362491A1, “STEREOISOMER OF FLOCOUMAFEN, COMPOSITION AND RODENTICIDE BAIT COMPRISING SAME, AND METHOD FOR CONTROLLING TARGET RODENT PESTS” (priority 2015, published 2018).

Assay type: in vivo, rat
Conditions: male and female rats, D+1 to D+7 after oral tube-feeding
Procedure: The configurational stereoisomers of flocoumafen are separated by high-pressure liquid chromatography using a LUX® Cellulose-4 chiral column (00F-4490-B0, Phenomenex, Le Pecq, France) as stationary phase and a mixture formed from acetonitrile (A) and water comprising 0.1% by volume of formic acid (B), with an AB volume ratio of 92/8, as mobile phase with a flow rate of the liquid mobile phase in the chromatography column of 0.25 mL/minute. 1 μL of extract comprising flocoumafen at a concentration of 1 μg/mL of acetonitrile is injected. Detection is performed by tandem mass spectrometry (MS/MS) in negative electrospray ionization (ESI) mode. The temperature of the nebulizer gas is 350° C. and its flow rate is 8 L/minute. The pressure of the nebulizer gas is brought to 2700 hPa. In particular, the MRM (“Multiple Reaction Monitoring”) transitions m/z 541.1→382.1 and m/z 541.1→161, corresponding to the flocoumafen signal, are detected.
About 0.525 g(±0.025 g) of rat liver is weighed out accurately and placed in a 50 mL polypropylene tube. 10 mL of acetone are added and the suspension is homogenized using an UltraTurrax® homogenizer/disperser for a time of about 30 seconds. The homogenizer/disperser shaft is rinsed with hot water and then twice with 20 mL of acetone in a polypropylene tube. […]

Compound: O=c1oc2ccccc2c(O)c1C1CC(c2ccc(OCc3ccc(C(F)(F)F)cc3)cc2)Cc2ccccc21 (single isomer, unassigned) [Enantiomer E3, flocoumafen]
- Persistence in the liver (in words, relative to enantiomer E4 and flocoumafen): lower than the persistence of enantiomer E4 of said diastereoisomer D1,4 and lower than the persistence of flocoumafen
